In patent US20100120763A1, “IMIDAZO[5,1-C][1,2,4]BENZOTRIAZINE DERIVATIVES AS INHIBITORS OF PHOSPHODIESTERASES” (priority 2008, published 2010) one finds IC50 data, which are given here for 13 molecules.

One assay addresses T1, PDE10A (Homo sapiens, UniProt Q9Y233).
T1 construct: made in house; host or cells: SF21 insect cells (baculovirus)
Briefly: Inhibition of recombinant PDE10A (baculovirus/SF21 system), [3H]-cAMP SPA. The settings on record: recombinant PDE10A1, cytosolic; 0.1 μM [3H]-cAMP, 37° C., 30 minutes; read-out: PDE10A IC50. It counts as biochemical. The protocol: Inhibition of Recombinant PDE10A (Baculovirus/SF21 System)
The gene was than inserted into a baculovirus vector, ligated with the baculovirus DNA. The enzyme-protein was expressed in SF21-cells. The enzyme was isolated from these cells by harvesting the cells by an centrifugation at 500 g to collect the cells.
The cells were resuspended in 50 mM Tris-HCl/1 mM EDTA/250 mM Sucrose buffer, pH=7.4 (Sigma, Deisenhofen, Germany; Merck, Darmstadt, Germany) and lysed by sonification of the cells (three times for 15 seconds, Labsonic U, Fa. Braun, Degersheim, Switzerland, level “high”). The cytosolic PDE10A was obtained by a centrifugation at 48,000 g for 1 h in the supernatant and stored at −70° C.
PDE activity was determined in a one step procedure in microtiter plates. The reaction mixture of 100 μl contained 50 mM Tris-HCl/5 mM MgCl2 buffer (pH=7.4, Sigma, Deisenhofen, Germany; Merck, Darmstadt, Germany) 0.1 μM [3H]-cAMP (Amersham, Buckinghamshire, UK) and the enzyme. Non-specific enzyme activity was determined without the enzyme. The reaction was initiated by addition of the substrate solution and was carried out at 37° C. for 30 minutes. Enzymatic activity then was stopped by addition of 25 μl Ysi-SPA-beads (Amersham-Pharmacia). One hour later the mixture was measured in a liquid scintillation counter for microtiter plates (Microbeta Trilux). The Biomek 2000 (Beckman) was used routinely for pipetting of the incubation mixture. […] For determination of IC50 values the Hill-plot, 2-parameter-model, was used.

Another assay concerns the target T2, PDE2A (Homo sapiens, UniProt O00408).
T2 construct: made in house; host or cells: SF21 insect cells (baculovirus)
Briefly: Inhibition of recombinant PDE2A (expressed in baculovirus/SF21-cells), [3H]-cAMP SPA. It counts as biochemical. The protocol:
Inhibition of Recombinant PDE2A (Expressed in Baculovirus/SF21-Cells)
PDE2A (NM002599) was cloned and the gene was inserted in the baculovirus and the enzyme-protein expressed in SF21-cells. The enzyme was isolated from these cells by harvesting the cells by an centrifugation at 200 g to collect the cells. The cells were resuspended in 50 mM Tris-HCl/5 mM MgCl2 buffer (pH=7.4) (Sigma, Deisenhofen, Germany; Merck, Darmstadt, Germany) and lysed by a sonication of the cells (three times for 15 seconds, Labsonic U, Fa. Braun, Degersheim, Switzerland, level “high”). The membrane fraction of PDE2A was obtained by a centrifugation at 48 000 g for 1 h, resuspended in buffer and stored at −70° C.
PDE2A activity was determined in a one step procedure in microtiterplates. The reaction mixture of 100 μl contained 50 mM Tris-HCl/5 mM MgCl2 buffer (pH=7.4) (Sigma, Deisenhofen, Germany; Merck, Darmstadt, Germany), 0.5 μM [3H]-cAMP (Amersham, Buckinghamshire, UK), 1000 nM cGMP and the enzyme. Non-specific enzyme activity was tested in the absence of cGMP. The reaction was initiated by addition of the substrate solution and was carried out at 37° C. for 30 minutes. Enzymatic activity then was stopped by addition of 25 μl SPA-beads (Amersham-Pharmacia). One hour later the mixture was measured in a liquid scintillation counter for microtiterplates (Microbeta Trilux). For pipetting of the incubation mixture the robot Biomek (Fa. Beckman) was routinely used.
For determination of IC50 values the Hill-plot, 2-parameter-model, was used.

The structures appear in SMILES notation.

T1 sequence (Q9Y233 1-779 isoform Q9Y233-1): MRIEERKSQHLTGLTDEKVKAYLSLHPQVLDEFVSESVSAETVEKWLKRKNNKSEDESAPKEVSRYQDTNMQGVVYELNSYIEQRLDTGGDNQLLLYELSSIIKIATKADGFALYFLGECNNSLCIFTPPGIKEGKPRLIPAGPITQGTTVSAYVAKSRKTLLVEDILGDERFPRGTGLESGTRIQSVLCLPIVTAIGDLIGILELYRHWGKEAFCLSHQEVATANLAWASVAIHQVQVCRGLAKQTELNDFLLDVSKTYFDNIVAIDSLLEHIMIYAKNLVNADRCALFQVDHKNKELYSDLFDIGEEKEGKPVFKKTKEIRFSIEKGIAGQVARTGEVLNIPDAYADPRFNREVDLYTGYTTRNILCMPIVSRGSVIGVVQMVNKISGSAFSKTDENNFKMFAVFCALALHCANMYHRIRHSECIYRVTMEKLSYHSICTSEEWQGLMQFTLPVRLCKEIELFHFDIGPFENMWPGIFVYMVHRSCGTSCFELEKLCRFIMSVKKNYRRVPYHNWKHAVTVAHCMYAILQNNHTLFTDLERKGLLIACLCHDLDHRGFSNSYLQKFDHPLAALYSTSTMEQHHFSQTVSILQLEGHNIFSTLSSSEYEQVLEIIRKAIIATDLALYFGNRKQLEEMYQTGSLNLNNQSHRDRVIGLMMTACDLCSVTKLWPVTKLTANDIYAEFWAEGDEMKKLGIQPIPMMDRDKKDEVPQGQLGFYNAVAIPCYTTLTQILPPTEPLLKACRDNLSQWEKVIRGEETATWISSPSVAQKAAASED
T2 sequence (O00408 whole entry): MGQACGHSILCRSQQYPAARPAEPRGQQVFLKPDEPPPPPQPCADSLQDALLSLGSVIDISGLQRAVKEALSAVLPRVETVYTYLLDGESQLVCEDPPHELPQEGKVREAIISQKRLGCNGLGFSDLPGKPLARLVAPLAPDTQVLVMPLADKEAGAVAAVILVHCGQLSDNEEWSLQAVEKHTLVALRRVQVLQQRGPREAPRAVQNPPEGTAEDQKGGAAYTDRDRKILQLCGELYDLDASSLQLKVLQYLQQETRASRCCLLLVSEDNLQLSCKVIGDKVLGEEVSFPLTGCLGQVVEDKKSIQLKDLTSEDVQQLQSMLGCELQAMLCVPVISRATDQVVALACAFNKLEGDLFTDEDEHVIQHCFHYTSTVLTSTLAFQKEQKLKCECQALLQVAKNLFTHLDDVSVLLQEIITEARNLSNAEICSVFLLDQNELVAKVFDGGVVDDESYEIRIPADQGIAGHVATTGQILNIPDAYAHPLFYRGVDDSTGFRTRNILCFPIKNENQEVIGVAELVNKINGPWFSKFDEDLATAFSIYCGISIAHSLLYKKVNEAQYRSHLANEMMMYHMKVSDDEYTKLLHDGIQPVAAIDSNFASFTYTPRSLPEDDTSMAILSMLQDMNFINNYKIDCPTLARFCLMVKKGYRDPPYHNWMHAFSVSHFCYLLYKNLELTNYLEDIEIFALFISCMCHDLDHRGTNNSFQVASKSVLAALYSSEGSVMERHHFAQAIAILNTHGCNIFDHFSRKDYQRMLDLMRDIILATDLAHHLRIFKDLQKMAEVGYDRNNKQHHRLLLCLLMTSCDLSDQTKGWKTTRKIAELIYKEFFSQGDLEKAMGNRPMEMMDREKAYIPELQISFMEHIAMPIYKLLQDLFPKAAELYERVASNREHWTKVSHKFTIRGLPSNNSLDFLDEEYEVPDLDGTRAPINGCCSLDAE

The term IC50 denotes the point on the concentration scale where inhibition reaches its midpoint. Regarding `COc1ccccc1-c1nc(C)c2nnc3c(OC)cc(F)cc3n12` [Example 100, 8-fluoro-6-methoxy-1-(2-methoxyphenyl)-3-methylimidazo[5,1-c][1,2,4]benzotriazine], the IC50 is 6.53 nM on PDE10A and 894 nM at PDE2A.

Turning to `COc1cc(F)cc2c1nnc1c(C)nc(-c3cc(C(F)(F)F)ccc3Cl)n12` [Example 101, 1-[2-chloro-5-(trifluoromethyl)phenyl]-8-fluoro-6-methoxy-3-methylimidazo[5,1-c][1,2,4]benzotriazine], the IC50 stood at 43 nM on PDE10A and 258 nM at PDE2A.

Regarding `COc1ccc(Cl)cc1-c1nc(C)c2nnc3c(OC)cc(F)cc3n12` [Example 102, 1-(5-chloro-2-methoxyphenyl)-8-fluoro-6-methoxy-3-methylimidazo[5,1-c][1,2,4]benzotriazine], the values for the IC50 at PDE10A and at PDE2A were 14.5 nM and 704 nM, respectively.

`COc1cc(F)cc2c1nnc1c(C)nc(-c3cc(F)ccc3C)n12` [Example 103, 8-fluoro-1-(5-fluoro-2-methylphenyl)-6-methoxy-3-methylimidazo[5,1-c][1,2,4]benzotriazine]: the IC50 on PDE10A stood at 4.72 nM; at PDE2A, 435 nM.

Take `COc1cc(F)cc2c1nnc1c(C)nc(-c3cc(Cl)ccc3C)n12` [Example 104, 1-(5-chloro-2-methylphenyl)-8-fluoro-6-methoxy-3-methylimidazo[5,1-c][1,2,4]benzotriazine]: the IC50 at PDE10A was found to be 5.37 nM; on PDE2A, 171 nM.

For the molecule `COc1cc(F)cc2c1nnc1c(C)nc(-c3cc(Cl)ccc3F)n12` [Example 106, 1-(5-chloro-2-fluorophenyl)-8-fluoro-6-methoxy-3-methylimidazo[5,1-c][1,2,4]benzotriazine], the IC50 stood at 7.91 nM at PDE10A and 336 nM on PDE2A.

Take `COc1cc(F)cc2c1nnc1c(C)nc(-c3cc(C)ccc3Cl)n12` [Example 107, 1-(2-chloro-5-methylphenyl)-8-fluoro-6-methoxy-3-methylimidazo[5,1-c][1,2,4]benzotriazine]: the 50% inhibitory concentration (IC50) at PDE10A stood at 2.98 nM; at PDE2A, 62.5 nM.

As for `CCOc1ccc(Cl)c(-c2nc(C)c3nnc4c(OC)cc(F)cc4n23)c1` [Example 108, 1-(2-chloro-5-ethoxyphenyl)-8-fluoro-6-methoxy-3-methylimidazo[5,1-c][1,2,4]benzotriazine], the IC50 at PDE10A stood at 8.37 nM; on PDE2A it was 55 nM.

For the molecule `COc1cc(F)cc2c1nnc1c(C)nc(-c3cccnc3)n12` [Example 109, 8-fluoro-6-methoxy-3-methyl-1-pyridin-3-ylimidazo[5,1-c][1,2,4]benzotriazine], the IC50 on PDE10A was 102 nM; at PDE2A it was > 5000 nM.

As to `COc1cc(F)cc2c1nnc1c(C)nc(-c3ccc(F)cc3C)n12` [Example 110, 8-fluoro-1-(4-fluoro-2-methylphenyl)-6-methoxy-3-methylimidazo[5,1-c][1,2,4]benzotriazine], the IC50 on PDE10A amounted to 8.52 nM; at PDE2A it was 609 nM.

As to `COc1cc(F)cc2c1nnc1c(C)nc(-c3ccc(F)cc3Cl)n12` [Example 111, 1-(2-chloro-4-fluorophenyl)-8-fluoro-6-methoxy-3-methylimidazo[5,1-c][1,2,4]benzotriazine], the results for the IC50 on PDE10A and on PDE2A were 3.01 nM and 324 nM, respectively.

In the case of `COc1cc(F)cc2c1nnc1c(C)nc(-c3ccc(C)cc3Cl)n12` [Example 112, 1-(2-chloro-4-methylphenyl)-8-fluoro-6-methoxy-3-methylimidazo[5,1-c][1,2,4]benzotriazine], the IC50 on PDE10A was found to be 1.88 nM; at PDE2A it was 636 nM.

Turning to `COc1cc(F)cc2c1nnc1c(C)nc(-c3ccc(C)cc3F)n12` [Example 114, 8-fluoro-1-(2-fluoro-4-methylphenyl)-6-methoxy-3-methylimidazo[5,1-c][1,2,4]benzotriazine], the IC50 on PDE10A was 17.1 nM; at PDE2A it was 1060 nM.
